For orientation: IC50 means the point on the concentration scale where inhibition reaches its midpoint. Read a high IC50 as weaker potency in that assay.

Structures can show the parent of a compound that is named as a salt.

The experiment deals with GST tagged IRAK4 (Homo sapiens (Human), UniProt Q9NWZ3). In words: IRAK4 Kinase Assay (IMAP fluorescence polarization). Particulars: 0.5 nM GST tagged IRAK4, 100 μM ATP, 30 minutes at 25° C. In kind it is biochemical. Put shortly: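 GST-tagged IRAK4 (0.5 nM) phosphorylates 100 nM fluorescent peptide with 100 μM ATP in 10 mM Tris pH 7.2, 1 mM MgCl2, 1 mM DTT, 0.01% Tween 20 for 30 min at 25 °C. Phosphorylation read as IMAP nanoparticle-binding fluorescence polarization after stop reagent.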
GST tagged IRAK4, sequence (Q9NWZ3 whole entry): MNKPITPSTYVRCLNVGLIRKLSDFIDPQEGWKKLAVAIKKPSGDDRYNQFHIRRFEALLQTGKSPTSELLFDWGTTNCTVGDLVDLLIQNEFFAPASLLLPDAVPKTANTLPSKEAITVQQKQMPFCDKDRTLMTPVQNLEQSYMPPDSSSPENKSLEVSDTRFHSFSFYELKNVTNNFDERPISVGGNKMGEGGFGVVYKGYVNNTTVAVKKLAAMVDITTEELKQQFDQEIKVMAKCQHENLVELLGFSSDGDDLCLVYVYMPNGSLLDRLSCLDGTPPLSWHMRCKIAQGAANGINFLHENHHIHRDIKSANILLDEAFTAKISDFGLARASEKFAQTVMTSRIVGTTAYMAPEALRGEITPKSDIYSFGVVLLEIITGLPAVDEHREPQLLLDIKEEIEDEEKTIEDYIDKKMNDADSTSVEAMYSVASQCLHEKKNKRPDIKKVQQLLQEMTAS
On the technique in general: In fluorescence polarisation assays a small probe gives low polarisation when free and higher when bound to something large.
In turn, `Cn1cc(NC(=O)c2csc3ncc(N[C@@H]4CCCC(F)(F)[C@@H]4N)nc23)c(Br)n1` [Example 29, 2-{[(1R,2R)-2-amino-3,3-difluorocyclohexyl]amino}-N-(3-(bromo-1-methyl-1H-pyrazol-4-yl)thieno[2,3-b]pyrazine-7-carboxamide trifluoroacetate] showed an IC50 of 107 nM.

In turn, `Cn1cc(NC(=O)c2csc3ncc(N[C@@H]4CCCC[C@@H]4N)nc23)c(Br)n1` [Example 30, 2-{[(1R,2S)-2-aminocyclohexyl]amino}-N-(3-bromo-1-methyl-1H-pyrazol-4-yl)thieno[2,3-b] pyrazine-7-carboxamide trifluoroacetate] yielded an IC50 of 0.6 nM.

Molecule `Cn1cc(NC(=O)c2csc3ncc(N[C@@H]4CCCNC4)nc23)c(C(F)F)n1` [Example 32, N-[3-(difluoromethyl)-1-methyl-1H-pyrazol-4-yl]-2-[(3R)-piperidin-3-ylamino]thieno [2,3-b]pyrazine-7-carboxamide] had an IC50 of 0.4 nM.

As for `Cn1cc(NC(=O)c2csc3ncc(N[C@@H]4CCCC[C@@H]4N)nc23)c(Cl)n1` [Example 35, 2-{[(1R,2S)-2-aminocyclohexyl]amino}-N-(3-chloro-1-methyl-1H-pyrazol-4-yl)thieno[2,3-b] pyrazine-7-carboxamide trifluoroacetate], the IC50 stood at 0.3 nM.

Turning to `Cn1cc(NC(=O)c2csc3ncc(N[C@@H]4CCCC(F)(F)[C@@H]4N)nc23)c(C#N)n1` [Example 36, 2-{[(1R,2R)-2-amino-3,3-difluorocyclohexyl]amino}-N-(3-cyano-1-methyl-1H-pyrazol-4-yl]thieno[2,3-b] pyrazine-7-carboxamide trifluoroacetate], the IC50 came out at 50 nM.

Take `Cn1cc(NC(=O)c2csc3ncc(N[C@@H]4CCCC[C@@H]4N)nc23)c(C#N)n1` [Example 37, 2-{[(1R,2S)-2-aminocyclohexyl]amino}-N-(3-cyano-1-methyl-1H-pyrazol-4-yl)thieno[2,3-b] pyrazine-7-carboxamide trifluoroacetate]: it took 0.4 nM to reach half-maximal inhibition (IC50).

In the case of `Cn1cc(NC(=O)c2csc3ncc(N[C@@H]4CCCC(F)(F)[C@@H]4N)nc23)c(C(F)F)n1` [Example 39, 2-{[(1R,2R)-2-amino-3,3-difluorocyclohexyl]amino}-N-[3-(difluoromethyl)-1-methyl-1H-pyrazol-4-yl]thieno[2,3-b] pyrazine-7-carboxamide], the IC50 amounted to 32 nM.

For `Cn1cc(NC(=O)c2csc3ncc(N4CC5CCC(C4)N5)nc23)c(C(F)F)n1` [Example 40, 2-(3,8-diazabicyclo[3.2.1]oct-3-yl)-N-[3-(difluoromethyl)-1-methyl-1H-pyrazol-4-yl]thieno[2,3-b] pyrazine-7-carboxamide trifluoroacetate], the IC50 was determined as 0.6 nM.

`Cn1cc(NC(=O)c2csc3ncc(N4CC5CCC(C4)N5)nc23)c(C(F)(F)F)n1` [Example 41, 2-(3,8-diazabicyclo[3.2.1]oct-3-yl)-N-[1-methyl-3-(trifluoromethyl)-1H-pyrazol-4-yl]thieno[2,3-b] pyrazine-7-carboxamide trifluoroacetate] registered an IC50 of 18 nM.

For the molecule `Cn1cc(NC(=O)c2csc3ncc(N[C@@H]4CCCC(F)(F)[C@@H]4N)nc23)c(Cl)n1` [Example 43, 2-{[(1R,2R)-2-amino-3,3-difluorocyclohexyl]amino}-N-(3-chloro-1-methyl-1H-pyrazol-4-yl)thieno[2,3-b] pyrazine-7-carboxamide trifluoroacetate], the IC50 stood at 64 nM.

In the case of `Cn1cc(NC(=O)c2csc3ncc(N4C5CCC4CNC5)nc23)c(C(F)F)n1` [Example 44, 2-(3,8-diazabicyclo[3.2.1]oct-8-yl)-N-[3-(difluoromethyl)-1-methyl-1H-pyrazol-4-yl]thieno[2,3-b] pyrazine-7-carboxamide trifluoroacetate], the IC50 came to 0.5 nM.

Take `Cn1cc(NC(=O)c2csc3ncc(N4C5CCC4CNC5)nc23)c(C(F)(F)F)n1` [Example 45, 2-(3,8-diazabicyclo[3.2.1]oct-8-yl)-N-[1-methyl-3-(trifluoromethyl)-1H-pyrazol-4-yl]thieno[2,3-b] pyrazine-7-carboxamide trifluoroacetate]: the IC50 was determined as 2 nM.

The record behind these values is US10040802B2, “Thienopyrazine inhibitors of IRAK4 activity” (MERCK SHARP & DOHME CORP., priority 2015, dated 2018).
